molecular target: Bromodomain-containing protein 4 (Homo sapiens, UniProt O60885); test: Time Resolved Fluorescence Resonance Energy Transfer (TR-FRET) Assay: The binding of compounds to bromodomain BRD4 (44-168), BRD4 (333-460), and BRD4 (1-477 or 44-460) was assessed using a time resolved fluorescent resonance energy transfer binding assay (1), that measures the binding of a fluorescently labeled probe molecule to the bromodomain protein. The bromodomain protein, fluorescent probe molecule (either a biotinylated histone peptide or a fluorescently labeled small molecule), and dose-responsed test compound are incubated together to reach thermodynamic equilibrium. In the absence of a test compound, the bromodomain and small molecule are bound, resulting in a high fluorescent signal. In the presence of a sufficient concentration of inhibitor, this intercation is disrupted resulting in a loss of fluorescent resonance energy transfer.

| SMILES | IC50 [nM] |
| --- | --- |
| Cc1noc(C)c1-c1cc(C(N)=O)c2c(c1)c1ccc(N3CCOCC3)cc1n2CC1CC1 | < 5000 |
| Cc1noc(C)c1-c1cc(C(N)=O)c2c(c1)c1ccc(C(C)(C)O)cc1n2S(C)(=O)=O | < 50 |
| COC1CN(C(=O)c2ccc3c4cc(-c5c(C)noc5C)cc(C(N)=O)c4n(S(=O)(=O)C4CC4)c3c2)C1 | < 50 |
| Cc1noc(C)c1-c1cc(C(N)=O)c2c(c1)c1ccc(N3CCCC3=O)cc1n2CC1CC1 | < 50 |
| Cc1noc(C)c1-c1cc(C(=O)NCC2CC2)c2c(c1)c1c(S(C)(=O)=O)cccc1n2CC1CC1 | < 500 |
| COC(=O)Nc1ccc2c3cc(-c4c(C)noc4C)cc(C(N)=O)c3n(CC3CC3)c2c1 | < 500 |
| Cc1noc(C)c1-c1cc(C(N)=O)c2c(c1)c1ccc(S(C)(=O)=O)cc1n2S(=O)(=O)C1CC1 | < 500 |
| Cc1noc(C)c1-c1cc(C(N)=O)c2c(c1F)c1ccc(C(=O)N3C[C@@H](C)O[C@@H](C)C3)cc1n2CC1CC1 | < 50 |

Reference: ChEMBL document CHEMBL5725474, “Carbazole compounds useful as bromodomain inhibitors” (2018)
